± gives the expanded uncertainty stated by the source.
Assay: xn = mol fraction of the nth substance listed
Settings: for surface tension liquid-gas: Wilhelmy-plate method; for mass density: 100 kPa, Liquid, Vibrating tube method

CC(O)CO (stereo not given) [1,2-propanediol] + CC(C)O
Settings | mass density, 318.15 K [kg/m3] | mass density, 328.15 K [kg/m3] | surface tension liquid-gas, 318.15 K [mN/m] | surface tension liquid-gas, 328.15 K [mN/m]
x2 = 0 | 1017.51 ± 0.04 | 1009.78 ± 0.04 | 34.96 ± 0.2 | 34.6 ± 0.2
x2 = 0.05 | 1005.08 ± 0.06 | 997.4 ± 0.06 | 32.35 ± 0.2 | 32.15 ± 0.2
x2 = 0.1 | 992.51 ± 0.07 | 984.7 ± 0.07 | 30.74 ± 0.2 | 30.54 ± 0.2
x2 = 0.15 | 979.84 ± 0.07 | 971.99 ± 0.07 | 29.48 ± 0.2 | 29.26 ± 0.2
x2 = 0.2 | 967.11 ± 0.07 | 959.2 ± 0.07 | 28.42 ± 0.2 | 28.18 ± 0.2
x2 = 0.25 | 954.39 ± 0.07 | 946.41 ± 0.08 | 27.51 ± 0.2 | 27.25 ± 0.2
x2 = 0.3 | 941.69 ± 0.08 | 933.61 ± 0.08 | 26.68 ± 0.2 | 26.4 ± 0.2
x2 = 0.35 | 928.9 ± 0.08 | 920.73 ± 0.08 | 25.94 ± 0.2 | 25.64 ± 0.2
x2 = 0.4 | 916.09 ± 0.08 | 907.91 ± 0.09 | 25.25 ± 0.2 | 24.93 ± 0.2
x2 = 0.45 | 903.3 ± 0.09 | 895.1 ± 0.09 | 24.64 ± 0.2 | 24.3 ± 0.2
x2 = 0.5 | 890.5 ± 0.09 | 882.26 ± 0.1 | 24.05 ± 0.2 | 23.71 ± 0.2
x2 = 0.55 | 877.7 ± 0.1 | 869.44 ± 0.1 | 23.52 ± 0.2 | 23.16 ± 0.2
x2 = 0.6 | 865 ± 0.1 | 856.69 ± 0.1 | 23.01 ± 0.2 | 22.64 ± 0.2
x2 = 0.65 | 852.29 ± 0.1 | 843.93 ± 0.11 | 22.51 ± 0.2 | 22.12 ± 0.2
x2 = 0.7 | 839.59 ± 0.11 | 831.21 ± 0.11 | 22.03 ± 0.2 | 21.62 ± 0.2
x2 = 0.75 | 826.8 ± 0.11 | 818.53 ± 0.12 | 21.56 ± 0.2 | 21.13 ± 0.2
x2 = 0.8 | 813.99 ± 0.12 | 805.71 ± 0.12 | 21.11 ± 0.2 | 20.65 ± 0.2
x2 = 0.85 | 801.22 ± 0.12 | 792.81 ± 0.13 | 20.66 ± 0.2 | 20.16 ± 0.2
x2 = 0.9 | 788.63 ± 0.13 | 780.09 ± 0.13 | 20.23 ± 0.2 | 19.68 ± 0.2
x2 = 0.95 | 776.1 ± 0.13 | 767.47 ± 0.13 | 19.8 ± 0.2 | 19.21 ± 0.2

Reference: the NIST ThermoML archive (doi:10.1016/j.fluid.2014.12.040)
